Among the data in patent US8507533B2, “Glucagon receptor modulators” (Pfizer Inc., priority 2011, dated 2013) are Ki and Kb values, retold here.

As a reminder, the Ki is a measure of affinity in units of concentration, obtained from inhibition or displacement.

Test [1] concerns the target T1, human glucagon receptor (Homo sapiens (Human), UniProt P47871). Nature of the test: Human Glucagon SPA Assay (binding of [125I]Glucagon-Cex). The note with it: membrane from chem-1 cells stably transfected with the human glucagon receptor, Ki by Cheng-Prusoff equation. The protocol: The Glucagon SPA assay is used to determine the ability of test compounds to block the binding of glucagon-cex to the glucagon receptor. Test compounds are re-suspended and serially diluted in 100% DMSO. 1 μl of test compound at the desired concentrations is spotted into the appropriate wells of 96 well low binding white clear bottom plate (Corning). 1 μl of DMSO is spotted into total binding wells. 1 μl of a known glucagon antagonist at a concentration of 20 μM is added to non specific binding wells. […] All assay ingredients with the exception of test compounds are re-suspended in the following buffer; 50 mM Hepes pH 7.4; 5 mM MgCl2; 1 mM CaCl; 5% glycerol and 0.2% BSA. Following a 6-10 hr incubation at room temperature the amount of hot ligand bound to the cell membranes is determined by reading the plates on a Wallac Trilux radioactive emission detector. Data is analyzed using Pfizer's Data analysis program. IC50 values are then determined from the generated sigmoidal dose response curves. Ki values are calculated using Cheng-Prusoff equation. N is the number of times the compound was assayed.

The target of test [2] is T1, human glucagon receptor. The test can be described thus: Glucagon cAMP Assay (Cisbio cAMP detection). The class given is cell-based. The note with it: CHOK1 cells stably transfected with the human glucagon receptor; block of glucagon induced cAMP production; Kb by modified Cheng-Prusoff equation. On the technique in general: Changes in cAMP serve as a functional read-out for many G protein-coupled receptors.

T1 sequence (P47871 26-477): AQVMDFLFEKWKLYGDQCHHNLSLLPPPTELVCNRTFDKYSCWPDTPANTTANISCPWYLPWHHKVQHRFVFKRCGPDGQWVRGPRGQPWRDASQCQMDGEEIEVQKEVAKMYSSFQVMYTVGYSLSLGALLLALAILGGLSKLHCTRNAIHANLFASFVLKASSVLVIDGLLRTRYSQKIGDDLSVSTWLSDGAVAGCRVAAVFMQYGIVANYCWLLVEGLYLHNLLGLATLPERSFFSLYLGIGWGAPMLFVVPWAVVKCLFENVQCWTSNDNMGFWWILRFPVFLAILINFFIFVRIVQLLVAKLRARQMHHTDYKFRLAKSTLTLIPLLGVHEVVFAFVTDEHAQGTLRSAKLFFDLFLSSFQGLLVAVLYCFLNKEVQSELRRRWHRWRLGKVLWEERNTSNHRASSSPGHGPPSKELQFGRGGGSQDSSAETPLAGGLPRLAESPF

In turn, `CCCC(Nc1ccc(-n2cnc(-c3ccccc3)c2)nc1)c1ccc(C(=O)NCCC(=O)O)cc1` (racemic) [Example 162, (+/−)-3-(4-(1-(6-(4-phenyl-1H-imidazol-1-yl)pyridin-3-ylamino)butyl)benzamido)propanoic acid] registered an inhibition constant (Ki) at human glucagon receptor [1] of 47.3 nM. The Kb on human glucagon receptor [2] is 55.8 nM.

Regarding `Cc1nn(-c2ccc(NC(c3ccc(C(=O)NCCC(=O)O)cc3)C3CCCC3)cn2)cc1Cl` (racemic) [Example 163, (+/−)-3-(4-((6-(4-chloro-3-methyl-1H-pyrazol-1-yl)pyridin-3-ylamino)(cyclopentyl)methyl)benzamido)propanoic acid], on human glucagon receptor [1], affinity was put at a Ki of 65.9 nM. Also, the Kb at human glucagon receptor [2] worked out at 42.7 nM.

On human glucagon receptor [1], `CCCC(Nc1ccc(-n2cc(-c3ccccn3)cn2)nc1)c1ccc(C(=O)NCCC(=O)O)cc1` (racemic) [Example 164] displayed a Ki of 192 nM. Further, on human glucagon receptor [2], the Kb stood at 52.4 nM.

Consider `CCCC(Nc1ccc(-n2cc(-c3ccccc3)cn2)nc1)c1ccc(C(=O)N(C)CCC(=O)O)cc1` (racemic) [Example 165, (+/−)-3-(N-methyl-4-(1-(6-(4-phenyl-1H-pyrazol-1-yl)pyridin-3-ylamino)butyl)benzamido)propanoic acid], for which affinity at human glucagon receptor [1] was put at a Ki of 142 nM. Besides, the Kb at human glucagon receptor [2] was determined as 305 nM.

`CCCC(Nc1ccc(-n2cc(C3CC3)cn2)nc1)c1ccc(C(=O)NCCC(=O)O)cc1` (racemic) [Example 176, (+/−)-N-[4-(1-{[6-(4-cyclopropyl-1H-pyrazol-1-yl)pyridin-3-yl]amino}butyl)benzoyl]-beta-alanine]: the affinity on human glucagon receptor [1] corresponds to a Ki of 101 nM. At human glucagon receptor [2], this compound returned a Kb of 79.1 nM.

In the case of `O=C(O)CCNC(=O)c1ccc(C(Nc2ccc(-n3cc(C(F)(F)F)cn3)nc2)C2CCOCC2)cc1` (racemic) [Example 177, (±)-3-(4-((tetrahydro-2H-pyran-4-yl)((6-(4-(trifluoromethyl)-1H-pyrazol-1-yl)pyridin-3-yl)amino)methyl)benzamido)propanoic acid], the inhibition constant (Ki) at human glucagon receptor [1] was 432 nM. The same compound returned a Kb at human glucagon receptor [2] of 2340 nM.

As for `CC(C)(C)C(Nc1ccc(-n2cc(C(F)(F)F)cn2)nc1)c1ccc(C(=O)NCCC(=O)O)cc1` (racemic) [Example 178, (±)-3-(4-(2,2-dimethyl-1-((6-(4-(trifluoromethyl)-1H-pyrazol-1-yl)pyridin-3-yl)amino)propyl)benzamido)propanoic acid], the inhibition constant (Ki) on human glucagon receptor [1] was found to be 37.4 nM. The compound further came in with a Kb on human glucagon receptor [2] of 215 nM.

Take `CC(C)(C)C(Nc1ccc(-n2cnc(C(F)(F)F)c2)nc1)c1ccc(C(=O)NCCC(=O)O)cc1` (racemic) [Example 181, (±)-3-(4-(2,2-dimethyl-1-((6-(4-(trifluoromethyl)-1H-imidazol-1-yl)pyridin-3-yl)amino)propyl)benzamido)propanoic acid]: the inhibitory constant (Ki) on human glucagon receptor [1] came out at 87.2 nM. This compound came in with a Kb at human glucagon receptor [2] of 195 nM.

Compound `CCCC(Oc1cc(F)c(-n2cc(C(F)(F)F)cn2)c(F)c1)c1ccc(C(=O)NCCC(=O)O)cc1` (racemic) [Example 184, (+/−)-3-(4-{1-[3,5-difluoro-4-(4-trifluoromethyl-pyrazol-1-yl)-phenoxy]-butyl}-benzoylamino)-propionic acid] yielded a Ki at human glucagon receptor [1] of 240 nM. Further, at human glucagon receptor [2], the Kb was 321 nM.

At human glucagon receptor [1], `CCCC(Oc1ccc(-n2cc3cc(F)ccc3n2)cc1)c1ccc(C(=O)NCCC(=O)O)cc1` (racemic) [Example 185, (+/−)-3-(4-{1-[4-(5-fluoro-indazol-2-yl)-phenoxy]-butyl}-benzoylamino)-propionic acid] had an inhibition constant (Ki) of 137 nM. Further, at human glucagon receptor [2], the Kb came to 175 nM.

`CCCC(Oc1ccc(-n2cc3ccc(F)cc3n2)cc1)c1ccc(C(=O)NCCC(=O)O)cc1` (racemic) [Example 186, (+/−)-3-(4-{1-[4-(6-fluoro-indazol-2-yl)-phenoxy]-butyl}-benzoylamino)-propionic acid] registered a Ki on human glucagon receptor [1] of 175 nM. The Kb at human glucagon receptor [2] came out at 192 nM.

Compound `O=C(O)CCNC(=O)c1ccc(C(Nc2ccc(-n3cnc(C(F)(F)F)c3)nc2)C2CCCC2)cc1` (single isomer, unassigned) [Example 97, 3-(4-(cyclopentyl(6-(4-(trifluoromethyl)-1H-imidazol-1-yl)pyridin-3-ylamino)methyl)benzamido)propanoic acid] yielded a Ki on human glucagon receptor [1] of 93 nM. The compound further displayed a Kb at human glucagon receptor [2] of 90.8 nM.

As to `O=C(O)CCNC(=O)c1ccc(C(Nc2ccc(-n3cnc(C(F)(F)F)c3)nc2)C2CCCC2)cc1` (single isomer, unassigned) [Example 98, 3-(4-(cyclopentyl(6-(4-(trifluoromethyl)-1H-imidazol-1-yl)pyridin-3-ylamino)methyl)benzamido)propanoic acid], at human glucagon receptor [1], the affinity corresponds to a Ki of 1100 nM. Moreover, the Kb at human glucagon receptor [2] was 1060 nM.

For the compound `CCCC(Nc1ccc(-n2cc(C(F)(F)F)cn2)nc1)c1ccc(C(=O)NCCC(=O)O)cc1F` (single isomer, unassigned) [Example 109, 3-(3-fluoro-4-(1-(6-(4-(trifluoromethyl)-1H-pyrazol-1-yl)pyridin-3-ylamino)butyl)benzamido)propanoic acid], on human glucagon receptor [1], the Ki was 153 nM. At human glucagon receptor [2], this compound returned a Kb of 1710 nM.

As to `CCCC(Nc1ccc(-n2cc(C(F)(F)F)cn2)nc1)c1ccc(C(=O)NCCC(=O)O)cc1F` (single isomer, unassigned) [Example 110, 3-(3-fluoro-4-(1-(6-(4-(trifluoromethyl)-1H-pyrazol-1-yl)pyridin-3-ylamino)butyl)benzamido)propanoic acid], the inhibition constant Ki on human glucagon receptor [1] amounted to 57.2 nM. Also, on human glucagon receptor [2], the Kb stood at 97 nM.

On human glucagon receptor [1], `CCCC(Nc1ccc(-n2cc(C(F)(F)F)cn2)nc1)c1ccc(C(=O)NCCC(=O)O)cc1C` (single isomer, unassigned) [Example 111, 3-(3-methyl-4-(1-(6-(4-(trifluoromethyl)-1H-pyrazol-1-yl)pyridin-3-ylamino)butyl)benzamido)propanoic acid] had a Ki of 202 nM. At human glucagon receptor [2], this compound showed a Kb of 2350 nM.

In turn, `CCCC(Nc1ccc(-n2cc(C(F)(F)F)cn2)nc1)c1ccc(C(=O)NCCC(=O)O)cc1C` (single isomer, unassigned) [Example 112] yielded a Ki on human glucagon receptor [1] of 143 nM. This compound also yielded a Kb at human glucagon receptor [2] of 126 nM.

Compound `CC1(C)CC(C(Nc2ccc(-n3cc(C(F)(F)F)cn3)nc2)c2ccc(C(=O)NCCC(=O)O)cc2)C1` (single isomer, unassigned) [Example 114, 3-(4-((3,3-dimethylcyclobutyl)(6-(4-(trifluoromethyl)-1H-pyrazol-1-yl)pyridin-3-ylamino)methyl)benzamido)propanoic acid] returned a Ki at human glucagon receptor [1] of 7.6 nM. At human glucagon receptor [2], this compound had a Kb of 17 nM.

In the case of `CC1(C)CC(C(Nc2ccc(-n3cc(C(F)(F)F)cn3)nc2)c2ccc(C(=O)NCCC(=O)O)cc2)C1` (single isomer, unassigned) [Example 115, 3-(4-((3,3-dimethylcyclobutyl)(6-(4-(trifluoromethyl)-1H-pyrazol-1-yl)pyridin-3-ylamino)methyl)benzamido)propanoic acid], the affinity at human glucagon receptor [1], expressed as Ki, was 15.8 nM. This compound also gave a Kb at human glucagon receptor [2] of 231 nM.

`CCCC(Oc1ccc(-n2cc3ccccc3n2)c(C)c1)c1ccc(C(=O)NCCC(=O)O)cc1` (single isomer, unassigned) [Example 116, 3-(4-(1-(4-(2H-indazol-2-yl)-3-methylphenoxy)butyl)benzamido)propanoic acid] registered a Ki at human glucagon receptor [1] of 464 nM. In addition, the Kb on human glucagon receptor [2] is 450 nM.

`O=C(O)CCNC(=O)c1ccc(C(Nc2ccc(-n3cnc(Cl)c3)nc2)C2CCCC2)cc1` (single isomer, unassigned) [Example 120, 3-(4-((6-(4-chloro-1H-imidazol-1-yl)pyridin-3-ylamino)(cyclopentyl)methyl)benzamido)propanoic acid] gave an inhibition constant Ki on human glucagon receptor [1] of 225 nM. Further, on human glucagon receptor [2], the Kb is 65 nM.

`CCCC(Nc1ccc(-n2cnc(-c3ccccc3)c2)nc1)c1ccc(C(=O)NCCC(=O)O)cc1` (single isomer, unassigned) [Example 129, 3-(4-(1-(6-(4-phenyl-1H-imidazol-1-yl)pyridin-3-ylamino)butyl)benzamido)propanoic acid] came in with an inhibition constant (Ki) at human glucagon receptor [1] of 29.3 nM. The Kb at human glucagon receptor [2] stood at 13 nM.

`CC1(C)CC([C@@H](Nc2ccc(-n3cnc(C(F)(F)F)c3)nc2)c2ccc(C(=O)NCCC(=O)O)cc2)C1` (single isomer, unassigned) [Example 134, 3-(4-((3,3-dimethylcyclobutyl)(6-(4-(trifluoromethyl)-1H-imidazol-1-yl)pyridin-3-ylamino)methyl)benzamido)propanoic acid] yielded a Ki at human glucagon receptor [1] of 110 nM. The same compound gave a Kb on human glucagon receptor [2] of 876 nM.

As to `CC1(C)CC([C@@H](Nc2ccc(-n3cnc(C(F)(F)F)c3)nc2)c2ccc(C(=O)NCCC(=O)O)cc2)C1` (single isomer, unassigned) [Example 135, 3-(4-((3,3-dimethylcyclobutyl)(6-(4-(trifluoromethyl)-1H-imidazol-1-yl)pyridin-3-ylamino)methyl)benzamido)propanoic acid], at human glucagon receptor [1], affinity was put at a Ki of 35 nM. The same compound registered a Kb at human glucagon receptor [2] of 28 nM.

Take `CCC[C@@H](Nc1ccc(-n2cc(C(C)(C)C)cn2)nc1)c1ccc(C(=O)NCCC(=O)O)cc1` (single isomer, unassigned) [Example 136, 3-(4-(1-(6-(4-tert-butyl-1H-pyrazol-1-yl)pyridin-3-ylamino)butyl)benzamido)propanoic acid]: on human glucagon receptor [1], the Ki came out at 30.2 nM. This compound showed a Kb on human glucagon receptor [2] of 222 nM.
